Experimental data from the supplement of paper PMC13380429.

How the values were obtained:
A549-ACE2 [1] = experiment: phospholipidosis EC50; higher = less potent phospholipidosis inducer
HepG2 [2] = experiment: relative viability EC50 (midpoint between 100% and the lowest measured viability); higher = less toxic; settings: 72 h
Calu-3 [3] = experiment: as above; settings: 72 h
Caco-2 [4] = experiment: as above; settings: 72 h
U2OS [5] = experiment: as above; settings: 72 h
Vero E6 [6] = experiment: as above; settings: 72 h
[7] = tested on: A549-ACE2 infected with SARS-CoV-2; experiment: SARS-CoV-2 infection rate relative to DMSO; higher = more infection; settings: 24 h
[8] = tested on: A549-ACE2 infected with SARS-CoV-2; experiment: cell count relative to DMSO; higher = less toxic; settings: 24 h
HepG2 [9] = experiment: cell viability relative to DMSO; higher = less toxic; settings: 72 h
Calu-3 [10] = experiment: as above; settings: 72 h
Caco-2 [11] = experiment: as above; settings: 72 h
U2OS [12] = experiment: as above; settings: 72 h
Vero E6 [13] = experiment: as above; settings: 72 h
A549-ACE2 [14] = experiment: drug-induced phospholipidosis relative to tamoxifen; higher = more phospholipidosis
HepG2 [15] = experiment: drug sensitivity score (DSS) for viability; higher = more toxic; extreme values may be limits of the assay; settings: 72 h
Calu-3 [16] = experiment: as above; settings: 72 h
Caco-2 [17] = experiment: as above; settings: 72 h
U2OS [18] = experiment: as above; settings: 72 h
Vero E6 [19] = experiment: as above; settings: 72 h
[20] = tested on: A549-ACE2 infected with SARS-CoV-2; experiment: morphology score (similarity to uninfected cells); higher = more like uninfected cells; settings: 24 h

Nc1nc(NC[C@H]2CC[C@H](CNS(=O)(=O)c3cccc4ccccc34)CC2)nc2ccccc12
Settings | SARS-CoV-2 infection rate [%] | cell count [%] | cell viability [%] | morphology score | phospholipidosis EC50 [µM]
A549-ACE2 [1], 24 h | – | – | – | – | 1.03
A549-ACE2 [1], 48 h | – | – | – | – | 3.12
A549-ACE2 [1], 72 h | – | – | – | – | 6.11
Caco-2 [11], 1 nM | – | – | 102 | – | –
Caco-2 [11], 10 nM | – | – | 97.4 | – | –
Caco-2 [11], 100 nM | – | – | 93.8 | – | –
Caco-2 [11], 1000 nM | – | – | 95 | – | –
Caco-2 [11], 10000 nM | – | – | 12.7 | – | –
Calu-3 [10], 1 nM | – | – | 89.3 | – | –
Calu-3 [10], 10 nM | – | – | 95.8 | – | –
Calu-3 [10], 100 nM | – | – | 98.8 | – | –
Calu-3 [10], 1000 nM | – | – | 98.1 | – | –
Calu-3 [10], 10000 nM | – | – | 0.9 | – | –
HepG2 [9], 1 nM | – | – | 98.2 | – | –
HepG2 [9], 10 nM | – | – | 99.6 | – | –
HepG2 [9], 100 nM | – | – | 101 | – | –
HepG2 [9], 1000 nM | – | – | 86.3 | – | –
HepG2 [9], 10000 nM | – | – | 0.8 | – | –
U2OS [12], 1 nM | – | – | 101 | – | –
U2OS [12], 10 nM | – | – | 101 | – | –
U2OS [12], 100 nM | – | – | 98.5 | – | –
U2OS [12], 1000 nM | – | – | 96.8 | – | –
U2OS [12], 10000 nM | – | – | 3.6 | – | –
Vero E6 [13], 1 nM | – | – | 97 | – | –
Vero E6 [13], 10 nM | – | – | 95.8 | – | –
Vero E6 [13], 100 nM | – | – | 99.9 | – | –
Vero E6 [13], 1000 nM | – | – | 91.6 | – | –
Vero E6 [13], 10000 nM | – | – | 4 | – | –
[7], 0.1 µM | 101 | – | – | – | –
[7], 0.3 µM | 95 | – | – | – | –
[7], 1 µM | 90 | – | – | – | –
[7], 3 µM | 12 | – | – | – | –
[8], 0.1 µM | – | 105 | – | – | –
[8], 0.3 µM | – | 101 | – | – | –
[8], 1 µM | – | 101 | – | – | –
[8], 3 µM | – | 123 | – | – | –
[20], 0.1 µM | – | – | – | 0.06 | –
[20], 0.3 µM | – | – | – | -0.01 | –
[20], 1 µM | – | – | – | 0.19 | –
[20], 3 µM | – | – | – | 0.63 | –

Settings | drug sensitivity score | relative viability EC50
Caco-2 [4] | – | 2710 nM
Caco-2 [17] | 5.6 | –
Calu-3 [3] | – | 3.03 µM
Calu-3 [16] | 5.8 | –
HepG2 [2] | – | 2060 nM
HepG2 [15] | 7.8 | –
U2OS [5] | – | 2920 nM
U2OS [18] | 5.8 | –
Vero E6 [6] | – | 2440 nM
Vero E6 [19] | 6.7 | –

drug-induced phospholipidosis [%], A549-ACE2 [14]
Settings | 0.3 µM | 0.833333 µM | 3.33333 µM | 6.66667 µM | 10 µM | 30 µM
24 h | 4.45 | 16.1 | 78.1 | 111 | 51.3 | 58.3
48 h | 5.61 | 11.2 | 82 | 124 | – | –
72 h | 6.01 | 9.91 | 62.8 | 129 | – | –

C[C@@H](O[C@H]1OCCN(Cc2nn[nH]c2CN(C)C)[C@H]1c1ccc(F)cc1)c1cc(C(F)(F)F)cc(C(F)(F)F)c1
Settings | SARS-CoV-2 infection rate [%] | cell count [%] | cell viability [%] | morphology score | phospholipidosis EC50 [µM]
A549-ACE2 [1], 24 h | – | – | – | – | 3.41
A549-ACE2 [1], 48 h | – | – | – | – | 3.74
A549-ACE2 [1], 72 h | – | – | – | – | 4.73
Caco-2 [11], 1 nM | – | – | 97 | – | –
Caco-2 [11], 10 nM | – | – | 94.6 | – | –
Caco-2 [11], 100 nM | – | – | 99.9 | – | –
Caco-2 [11], 1000 nM | – | – | 103 | – | –
Caco-2 [11], 10000 nM | – | – | 70.7 | – | –
Calu-3 [10], 1 nM | – | – | 93.6 | – | –
Calu-3 [10], 10 nM | – | – | 93.9 | – | –
Calu-3 [10], 100 nM | – | – | 91.8 | – | –
Calu-3 [10], 1000 nM | – | – | 97.5 | – | –
Calu-3 [10], 10000 nM | – | – | 75.1 | – | –
HepG2 [9], 1 nM | – | – | 90.8 | – | –
HepG2 [9], 10 nM | – | – | 91.5 | – | –
HepG2 [9], 100 nM | – | – | 87.5 | – | –
HepG2 [9], 1000 nM | – | – | 110 | – | –
HepG2 [9], 10000 nM | – | – | 69.1 | – | –
U2OS [12], 1 nM | – | – | 98.8 | – | –
U2OS [12], 10 nM | – | – | 96.9 | – | –
U2OS [12], 100 nM | – | – | 105 | – | –
U2OS [12], 1000 nM | – | – | 98.6 | – | –
U2OS [12], 10000 nM | – | – | 75.9 | – | –
Vero E6 [13], 1 nM | – | – | 91 | – | –
Vero E6 [13], 10 nM | – | – | 102 | – | –
Vero E6 [13], 100 nM | – | – | 95 | – | –
Vero E6 [13], 1000 nM | – | – | 96.9 | – | –
Vero E6 [13], 10000 nM | – | – | 82.8 | – | –
[7], 0.3 µM | 94 | – | – | – | –
[7], 3 µM | 67 | – | – | – | –
[7], 10 µM | 21 | – | – | – | –
[7], 30 µM | 29 | – | – | – | –
[8], 0.3 µM | – | 104 | – | – | –
[8], 3 µM | – | 107 | – | – | –
[8], 10 µM | – | 114 | – | – | –
[8], 30 µM | – | 96 | – | – | –
[20], 0.3 µM | – | – | – | 0.33 | –
[20], 3 µM | – | – | – | 0.54 | –
[20], 10 µM | – | – | – | 0.79 | –
[20], 30 µM | – | – | – | 0.29 | –

Settings | drug sensitivity score | relative viability EC50
Caco-2 [17] | 1.1 | –
Calu-3 [3] | – | > 10 µM
Calu-3 [16] | 1.3 | –
HepG2 [15] | 0.9 | –
U2OS [5] | – | > 10000 nM
U2OS [18] | 1.1 | –
Vero E6 [6] | – | > 10000 nM
Vero E6 [19] | 0.7 | –

drug-induced phospholipidosis [%], A549-ACE2 [14]
Settings | 0.3 µM | 0.833333 µM | 3.33333 µM | 6.66667 µM | 10 µM
24 h | 0.77 | 3.06 | 53.9 | 92.5 | 102
48 h | 1.56 | 0.335 | 38.1 | 83.7 | 91.7
72 h | 2.71 | 0.0731 | 32.7 | 80.6 | 99.1
